Key:
[1] = test system: C2C12 skeletal myotubes; test: Total cellular protein content in C2C12 skeletal myotubes (BCA); type: cell-based, Mouse; details: 48 h incubation, vs vehicle (0.1% DMSO); for Percent change in total protein at 0.03 µM / Percent change in total protein at 0.1 µM / Percent change in total protein at 0.3 µM / Percent change in total protein at 1 µM / Percent change in total protein at 3 µM: Mus musculus, C2C12
Experimental: The compounds were tested in a well-established in vitro model of skeletal muscle, namely fully differentiated, post-mitotic C2C12 skeletal myotubes. Mouse C2C12 myoblasts may be obtained from ATCC (CRL-1772) and maintained at 37° C. and 5% CO2 in Dulbecco's modified Eagle's medium (ATCC #30-2002) containing antibiotics (100 units/mL penicillin, […] streptomycin sulfate) and 10% (v/v) fetal bovine serum (FBS). Myoblasts were set up for experiments on day 0 in 6-well plates at a density of 2.5×10^5 cells/well. On day 2, myoblasts were induced to differentiate into myotubes by replacing 10% FBS with 2% horse serum (HS). On day 7, myotubes were rinsed once with PBS, and then 2% HS was replaced with 10% FBS. The vehicle (0.1% DMSO) or varying concentrations of test compound were added directly to the media. After 48 h incubation, myotube protein content and size were measured.
To determine myotube protein content, myotubes were washed with ice cold PBS, scraped into lysis buffer (10 mM Tris-HCl, pH 7.6, 100 mM NaCl, and 1% (w/v) SDS, complete Mini protease inhibitor cocktail (Roche), and a 1:100 dilution of phosphatase inhibitor cocktail 3 (Sigma)), and then lysed with 10 passes through a 22-gauge needle. An aliquot of each myotube lysate sample was then used to determine protein concentration by the BCA kit (Pierce). […] To determine myotube size, myotubes were subjected to immunofluorescence staining with anti-troponin primary antibody and a fluorescent secondary antibody. Myotubes were then imaged on an Olympus IX-71 microscope equipped with a DP-70 camera and epifluorescence filters. Image analysis was performed using ImageJ software.

[2] = test system: Male C57BL/6 mice, tibialis anterior (TA) muscle; test: Mouse model of muscular atrophy: unilateral tibialis anterior immobilization; type: in vivo; details: 10 mg/kg i.p. twice a day for 7 days; 6 days TA immobilization; immobilized TA weight normalized to contralateral mobile TA; 12-13 mice
Experimental: Compounds of the invention were also tested in vivo in an established mouse model for muscular atrophy. Male C57BL/6 mice (8-10 weeks old) were administered i.p. injections of vehicle (corn oil) or 10 mg/kg test compound twice a day for 7 days. After 1 day of i.p. injections, one tibialis anterior (TA) muscle in each mouse was immobilized with a metal clip to induce skeletal muscle atrophy, as described previously (Dyle et al., Journal of Biological Chemistry 289: 14913-14924, 2014). In each mouse, the contralateral TA muscle remained mobile and served as a non-atrophied intrasubject control. After 7 days of i.p injections (6 days of unilateral TA immobilization), bilateral TA muscles were harvested and weighed. In each mouse, the amount of skeletal muscle loss in the immobilized TA muscle was determined by normalizing the weight of the immobilized TA muscle to the weight of the contralateral mobile (control) TA muscle. The data below are means ±SEM from 12-13 mice per condition. table: […]

| SMILES | Percent Change in Total Protein ([1]; 0.03 μM) [%] | Percent Change in Total Protein ([1]; 0.1 μM) [%] | Percent Change in Total Protein ([1]; 0.3 μM) [%] | Percent Change in Total Protein ([1]; 1 μM) [%] | Percent Change in Total Protein ([1]; 3 μM) [%] | % Muscle Loss (Mean ± SEM) [2] [%] | Percent change in total protein at 0.03 µM ([1]; 0.03 μM) [%] | Percent change in total protein at 0.1 µM ([1]; 0.1 μM) [%] | Percent change in total protein at 0.3 µM ([1]; 0.3 μM) [%] | Percent change in total protein at 1 µM ([1]; 1 μM) [%] | Percent change in total protein at 3 µM ([1]; 3 μM) [%] |
| --- | --- | --- | --- | --- | --- | --- | --- | --- | --- | --- | --- |
| CC1=C(CC[C@H](C)CN)O[C@H]2C[C@H]3[C@@H]4CC[C@H]5C[C@@H](O)CC[C@]5(C)[C@H]4CC[C@]3(C)[C@@H]12.Cl [Example 3, (2aS,4S,6aS,6bS,8aS,8bS,11aS,12aS,12bR)-10-((S)-4-Amino-3-methylbutyl)-6a,8a,9-trimethyl-2,2a,3,4,5,6,6a,6b,7,8,8a,8b,11a,12,12a,12b-hexadecahydro-1H-naphtho[2′,1′:4,5]indeno[2,1-b]furan-4-ol hydrochloride] | 3.8 ± 1.8 | 6.7 ± 2.4 | 9.2 ± 2.4 | 16.4 ± 1.3 | 17.9 ± 0.7 | 8.3 ± 1.9 |  |  |  |  |  |
| CC(=O)NC[C@@H](C)CCC1=C(C)[C@H]2[C@H](C[C@H]3[C@@H]4CC[C@H]5C[C@@H](OC(C)=O)CC[C@]5(C)[C@H]4CC[C@@]32C)O1 [Example 1, (2aS,4S,6aS,6bS,8aS,8bS,11aS,12aS,12bR)-10-((S)-4-acetamido-3-methylbutyl)-6a,8a,9-trimethyl-2,2a,3,4,5,6,6a,6b,7,8,8a,8b,11a,12,12a,12b-hexadecahydro-1H-naphtho[2′,1′:4,5]indeno[2,1-b]furan-4-yl acetate] |  |  |  |  |  | 4.8 ± 1.4 | 1 ± 1.1 | 5.6 ± 3.3 | 10.7 ± 1.9 | 16.7 ± 1.3 | 18.1 ± 0.5 |
| CC1=C(CC[C@H](C)CNC(C)C(F)F)O[C@H]2C[C@H]3[C@@H]4CC[C@H]5C[C@@H](O)CC[C@]5(C)[C@H]4CC[C@]3(C)[C@@H]12 (stereo partly drawn) [Example 9, (2aS,4S,6aS,6bS,8aS,8bS,11aS,12aS,12bR)-10-((3S)-4-((1,1-Difluoropropan-2-yl)amino)-3-methylbutyl)-6a,8a,9-trimethyl-2,2a,3,4,5,6,6a,6b,7,8,8a,8b,11a,12,12a,12b-hexadecahydro-1H-naphtho[2′,1′:4,5]indeno[2,1-b]furan-4-ol] |  |  |  |  |  |  | -1.5 ± 2.3 | 1.2 ± 0.7 | 8.6 ± 2.5 | 6.2 ± 2.1 | 6.9 ± 2.6 |
| CC1=C(CC[C@H](C)CNC(=O)OC(C)(C)C)O[C@H]2C[C@H]3[C@@H]4CC[C@H]5C[C@@H](O)CC[C@]5(C)[C@H]4CC[C@]3(C)[C@@H]12 [Example 2, tert-Butyl ((S)-4-((2aS,4S, 6aS,6bS, 8aS, 8bS,11aS,12aS,12bR)-4-hydroxy-6a, 8a,9-trimethyl-2,2a,3 ,4,5,6,6a,6b,7,8,8a, 8b,11a,12,12a,12b-hexadecahydro-1H-naphtho[2′,1′:4,5]indeno[2,1-b]furan-10-yl)-2-methylbutyl)carbamate] |  |  |  |  |  | 8.6 ± 1.8 | 3.2 ± 2.1 | 3.2 ± 3 | 4.9 ± 3.9 | 8.3 ± 3.8 | 10.8 ± 3 |
| CC1=C(CC[C@H](C)CN)O[C@H]2C[C@H]3[C@@H]4CC[C@H]5CC(NCCO)CC[C@]5(C)[C@H]4CC[C@]3(C)[C@@H]12.Cl.Cl (stereo partly drawn) [Example 11, 2-(((2aS,6aS,6bS,8aS,8bS,11aS,12aS,12bR)-10-((S)-4-amino-3-methylbutyl)-6a,8a,9-trimethyl-2,2a,3,4,5,6,6a,6b,7,8,8a,8b,11a,12,12a,12b-hexadecahydro-1H-naphtho[2′,1′:4,5]indeno[2,1-b]furan-4-yl)amino)ethanol dihydrochloride] | −1.8 ± 2.0 | 7.7 ± 1.5 | 6.3 ± 1.9 | 8.8 ± 2.1 | 4.9 ± 1.1 |  |  |  |  |  |  |
| CC1=C(CC[C@H](C)CNC(=O)OCC(C)C)O[C@H]2C[C@H]3[C@@H]4CC[C@H]5C[C@@H](O)CC[C@]5(C)[C@H]4CC[C@]3(C)[C@@H]12 [Example 6, Isobutyl ((S)-4-((2aS,4S,6aS,6bS, 8aS, 8bS,11aS,12aS,12bR)-4-hydroxy-6a, 8a,9-trimethyl-2,2a,3,4,5,6,6a,6b,7,8,8a, 8b,11a,12,12a,12b-hexadecahydro-1H-naphtho[2′,1′:4,5]indeno[2,1-b]furan-10-yl)-2-methylbutyl)carbamate] |  |  |  |  |  |  | 1.1 ± 0.8 | -0.1 ± 3.1 | 4.2 ± 3.2 | 10.9 ± 3.1 | 9 ± 1.6 |
| CC1=C(CC[C@H](C)CNC(C)C)O[C@H]2C[C@H]3[C@@H]4CC[C@H]5C[C@@H](O)CC[C@]5(C)[C@H]4CC[C@]3(C)[C@@H]12 [Example 7, (2aS,4S,6aS,6bS,8aS,8bS,11aS,12aS,12bR)-10-((S)-4-(Isopropylamino)-3-methylbutyl)-6a,8a,9-trimethyl-2,2a,3,4,5,6,6a,6b,7,8,8a,8b,11a,12,12a,12b-hexadecahydro-1H-naphtho[2′,1′:4,5]indeno[2,1-b]furan-4-ol] |  |  |  |  |  |  | -0.9 ± 1.5 | 0.5 ± 1.9 | 11.6 ± 2.3 | 11 ± 1.9 | 12.2 ± 3.2 |
| CC1=C(CC[C@H](C)CN(C)C)O[C@H]2C[C@H]3[C@@H]4CC[C@H]5C[C@@H](O)CC[C@]5(C)[C@H]4CC[C@]3(C)[C@@H]12 [Example 8, (2aS,4S,6aS,6bS,8aS,8bS,11aS,12aS,12bR)-10-((S)-4-(Dimethylamino)-3-methylbutyl)-6a,8a,9-trimethyl-2,2a,3,4,5,6,6a,6b,7,8,8a,8b,11a,12,12a,12b-hexadecahydro-1H-naphtho[2′,1′:4,5]indeno[2,1-b]furan-4-ol] |  |  |  |  |  |  | 0.5 ± 2.1 | 5 ± 1.9 | 9.7 ± 0.7 | 10.7 ± 1.6 | 9.1 ± 1.2 |
| CC(=O)O[C@H]1CC[C@@]2(C)[C@@H](CC[C@@H]3[C@@H]2CC[C@@]2(C)[C@H]3C[C@@H]3OC(CC[C@H](C)CNC(=O)OC(C)(C)C)=C(C)[C@@H]32)C1 [Example 4, (2aS,4S,6aS,6bS,8aS,8bS,11aS,12aS,12bR)-10-((S)-4-((tert-butoxycarbonyl)amino)-3-methylbutyl)-6a,8a,9-trimethyl-2,2a,3,4,5,6,6a,6b,7,8,8a,8b,11a,12,12a,12b-hexadecahydro-1H-naphtho[2′,1′:4,5]indeno[2,1-b]furan-4-yl acetate acetate] |  |  |  |  |  |  | 4.3 ± 1.6 | 4 ± 2.1 | 11.2 ± 2.3 | 13.4 ± 1.5 | 11.4 ± 2.9 |
| CC1=C(CC[C@H](C)CNC(=O)OC(C)(C)C)O[C@H]2C[C@H]3[C@@H]4CC[C@H]5CC(NCCO)CC[C@]5(C)[C@H]4CC[C@]3(C)[C@@H]12 (stereo partly drawn) [Example 10, tert-Butyl ((2S)-4-((2aS,6aS,6bS,8aS,8bS,11aS,12aS,12bR)-4-((2-hydroxyethyl)amino)-6a,8a,9-trimethyl-2,2a,3,4,5,6,6a,6b,7,8,8a,8b,11a,12,12a,12b-hexadecahydro-1H-naphtho[2′,1′:4,5]indeno[2,1-b]furan-10-yl)-2-methylbutyl)carbamate] |  |  |  |  |  |  | 10.3 ± 2.7 | 10.6 ± 2.2 | 15 ± 2.2 | 12.9 ± 1.6 | 16.1 ± 1.6 |
